Measurements reported in patent US12037372B2, “Bioactive peptides derived from snakes” (Universiteit Leiden, priority 2018, dated 2024).
“And” between values parts separate entries of the source, which are not always exact repeats. Equal values may be shown once.

Assays:
[1] = system: MDR S. aureus (LUH 14616), MRSA; assay: Bactericidal activity of peptides (in vitro killing assay); format: cell-based, Staphylococcus aureus; conditions: MDR S. aureus LUH 14616; 2-hour treatment; 50% v/v human plasma; lowest concentration killing ≥99.9%; median (range)
Protocol: (§1) Enterococcus faecium (LUH 15122), Staphylococcus aureus (LUH 14616), Klebsiella pneumoniae (LUH 15104), Acinetobacter baumannii (RUH 875), Pseudomonas aeruginosa (LUH 15103), Enterobacter cloacae (LUH 15114) and Escherichia coli (LUH 15117) were used. Prior to experimentation the bacteria were taken from a glycerol stock stored at −80° C. and cultured overnight on sheep blood agar plates at 37° C. On the day of experimentation the bacteria were cultured in tryptic soy broth (TSB; Oxoid) for 2.5 hours at 37° C. and 200 rpm to a mid-logarithmic phase. The bacterial suspension was washed in phosphate buffered saline (PBS; pH 7.4), centrifuged for 10 minutes at 3000 rpm, and resuspended in PBS to the desired concentration, as determined by measuring the absorbance at 600 nm.
(§2) As a control the bacteria were also incubated in PBS with either 50% plasma or 50% urine without peptide. The plate was incubated for 2 hours at 37° C. and 200 rpm. After incubation the number of viable bacteria was determined microbiologically by plating the samples and a 10-times dilution series in PBS on diagnostic sensitivity test agar plates (DST; Sigma). The DST plates were incubated overnight at 37° C. Results were expressed as lethal concentration 99.9, or LC99.9, which represents the lowest concentration of peptide that killed 99.9% of the bacteria within 2 hours of incubation.

[2] = system: MDR P. aeruginosa (LUH 15103); assay: as above; format: cell-based, Pseudomonas aeruginosa; conditions: 2-hour treatment, 50% v/v human plasma, median (range)
Protocol: as §1, §2

KRFKNFFKKIRDGIHEFIHNNRFVIGVNFRF [SP29]
LC99.9 (μM) MRSA in 50% plasma [1]: >102.4 µM | LC99.9 (μM) MDR P. aeruginosa in 50% plasma [2]: 51.2 µM

KRFKKFFKKVKKSVKKRLKKIFKKPIVIGVSIPF [SP25]
LC99.9 (μM) MRSA in 50% plasma [1]: 12.8 µM | LC99.9 (μM) MDR P. aeruginosa in 50% plasma [2]: 0.4 µM

KRFLRVFKKLKRGIRKLFKKKKIVTGPLTS [SP19]
LC99.9 (μM) MRSA in 50% plasma [1]: >102.4 µM | LC99.9 (μM) MDR P. aeruginosa in 50% plasma [2]: 12.8 µM

AREKSFLQKMKVILQLSSQDQIQAF [SP20]
LC99.9 (μM) MRSA in 50% plasma [1]: >102.4 µM | LC99.9 (μM) MDR P. aeruginosa in 50% plasma [2]: >102.4 µM

KRFKKFFKKIKTGIKKVIKKTKQAIASHFRW [SP18]
LC99.9 (μM) MRSA in 50% plasma [1]: > 102.4 µM and 102.4 µM | LC99.9 (μM) MDR P. aeruginosa in 50% plasma [2]: 0.8 µM

KRFLRLVVFKKLKKGLRKLFKKKKIVTGHVTS [SP28]
LC99.9 (μM) MRSA in 50% plasma [1]: 51.2 µM | LC99.9 (μM) MDR P. aeruginosa in 50% plasma [2]: 6.4 µM

KRFVGSFQLVVGVSFRF [SP34]
LC99.9 (μM) MRSA in 50% plasma [1]: >102.4 µM | LC99.9 (μM) MDR P. aeruginosa in 50% plasma [2]: >102.4 µM

KRFKKFFKKIKNSVKKRVKKFFKKPRVIGVSIPF [SP23]
LC99.9 (μM) MRSA in 50% plasma [1]: 4.8 (3.2-6.4) μM | LC99.9 (μM) MDR P. aeruginosa in 50% plasma [2]: 0.2 µM

KRFKDFFHRIRDGVRDFFRNNHFVCGVNFRF [SP17]
LC99.9 (μM) MRSA in 50% plasma [1]: >102.4 µM | LC99.9 (μM) MDR P. aeruginosa in 50% plasma [2]: >102.4 µM

KRFKKFFKKIKNGIKTFIKKTQMAIGSHFRW [SP30]
LC99.9 (μM) MRSA in 50% plasma [1]: 51.2 µM | LC99.9 (μM) MDR P. aeruginosa in 50% plasma [2]: 2.4 (1.6-3.2) μM

KRFKKFFKKAKKSVKKRLKKFFNKTRVIGVSIPF [SP14]
LC99.9 (μM) MRSA in 50% plasma [1]: 12.8 µM | LC99.9 (μM) MDR P. aeruginosa in 50% plasma [2]: 0.4 µM

KRFKKFFKKVKKSVKKRLKKIFKKPMVIGVTIPF [SP6]
LC99.9 (μM) MRSA in 50% plasma [1]: 57.6 (12.8-102.4) μM | LC99.9 (μM) MDR P. aeruginosa in 50% plasma [2]: 0.4 µM

KRFTFYKKVKKNVENLLNKFFKKLRVIGDSIPF [SP26]
LC99.9 (μM) MRSA in 50% plasma [1]: >102.4 µM | LC99.9 (μM) MDR P. aeruginosa in 50% plasma [2]: 12.8 µM

KRFKKFFKKVKKSVKKRLKKIFKKPMVIGVSIPF [SP7]
LC99.9 (μM) MRSA in 50% plasma [1]: 38.4 (25.6-51.2) μM | LC99.9 (μM) MDR P. aeruginosa in 50% plasma [2]: 0.8 µM

KRFKKFFKKVKKSVKKRLKKIFKKPMVIGVTFPF [SP9]
LC99.9 (μM) MRSA in 50% plasma [1]: 51.2 (25.6-51.2) μM | LC99.9 (μM) MDR P. aeruginosa in 50% plasma [2]: 1.6 µM

KRFKKFFKKLKNSVKKRVKKFFRKPRVIGVTFPF [SP3]
LC99.9 (μM) MRSA in 50% plasma [1]: 3.2 µM | LC99.9 (μM) MDR P. aeruginosa in 50% plasma [2]: 0.8 µM

KRFKKFFMKLKKSVKKRVMKFFKKPMVIGVTFPF [SP12]
LC99.9 (μM) MRSA in 50% plasma [1]: 25.6 (12.8->102.4) μM | LC99.9 (μM) MDR P. aeruginosa in 50% plasma [2]: 3.2 µM

KRFRKFFKRLLKSVRRAVKKFRKKPRLIGLSTLL [SP8]
LC99.9 (μM) MRSA in 50% plasma [1]: 25.6 µM | LC99.9 (μM) MDR P. aeruginosa in 50% plasma [2]: 1.6 µM

KRFKKFFKKLKNSVRKCAKKFFKKLRVIRVSIPF [SP24]
LC99.9 (μM) MRSA in 50% plasma [1]: 6.4 µM | LC99.9 (μM) MDR P. aeruginosa in 50% plasma [2]: 1.6 µM

KRFLRVFRKLKKGLKKLFKRKKVVTGYVTA [SP32]
LC99.9 (μM) MRSA in 50% plasma [1]: 25.6 µM | LC99.9 (μM) MDR P. aeruginosa in 50% plasma [2]: 12.8 µM

KRFKKFLKKLKKSVKKHVKEFFKKPRVIGV [SP35]
LC99.9 (μM) MRSA in 50% plasma [1]: 51.2 µM | LC99.9 (μM) MDR P. aeruginosa in 50% plasma [2]: 1.6 µM

RKFKKSFKKIRKWVKKATKIAGEVAVEILITKVILGSVGL [SP1]
LC99.9 (μM) MRSA in 50% plasma [1]: >102.4 µM | LC99.9 (μM) MDR P. aeruginosa in 50% plasma [2]: 3.2 µM

DQVERGNFAKDGSKARVKKSLTKWVKFLKKIIAKLGRPLIGF [SP22]
LC99.9 (μM) MRSA in 50% plasma [1]: 102.4 µM | LC99.9 (μM) MDR P. aeruginosa in 50% plasma [2]: 51.2 µM
